According to PMC12406203 (Journal of Medicinal Chemistry, 2025):

Legend:
Assay in all cases: KINOMEscan
Type in all cases: binding
MLK1 = target: T1, MLK1 (Homo sapiens, UniProt P80192)
T1 construct: purchased Eurofins DiscoverX, LLC; host or cells: E. coli (BL21-derived, T7 phage) or HEK-293
Method: (§1) The kinase inhibition profile of compounds 94 and 95 was assessed against 103 protein kinases by Eurofins DiscoverX, LLC., using the KINOMEscan assay. Kinase-tagged T7 phage strains were grown in parallel in 24-well blocks in an E. coli host derived from the BL21 strain. E. coli were grown to log-phase and infected with T7 phage from a frozen stock (multiplicity of infection = 0.4) and incubated with shaking at 32 °C until lysis (90–150 min). The lysates were centrifuged (6000g) and filtered (0.2 μm) to remove cell debris. The remaining kinases were produced in HEK-293 cells and subsequently tagged with DNA for qPCR detection. […] The liganded beads were blocked with excess biotin and washed with blocking buffer (SeaBlock (Pierce), 1% BSA, 0.05% Tween 20, 1 mM DTT) to remove unbound ligand and to reduce nonspecific phage binding. […] Test compounds were prepared as 100× stocks in 100% DMSO and directly diluted into the assay. All reactions were performed in polypropylene 384-well plates in a final volume of 0.02 mL. […] The kinase concentration in the eluates was measured by qPCR.
(§2) The compound(s) were screened at the concentration(s) requested, and results for primary screen binding interactions are reported as RA (%), where lower numbers indicate stronger hits in the matrix. RA=(testcompoundsignal−PCsignal/NCsignal−PCsignal)×100

PIK3C2B = target: T2, PIK3C2B (Homo sapiens, UniProt O00750)
T2 construct: purchased Eurofins DiscoverX, LLC; host or cells: E. coli BL21-derived host (T7 phage) or HEK-293
Method: as §1, §2

p38β = target: T3, p38β (Homo sapiens, UniProt Q15759)
T3 construct: purchased Eurofins DiscoverX, LLC; host or cells: E. coli (BL21-derived, T7 phage) or HEK-293
T3 sequence (Q15759 whole entry): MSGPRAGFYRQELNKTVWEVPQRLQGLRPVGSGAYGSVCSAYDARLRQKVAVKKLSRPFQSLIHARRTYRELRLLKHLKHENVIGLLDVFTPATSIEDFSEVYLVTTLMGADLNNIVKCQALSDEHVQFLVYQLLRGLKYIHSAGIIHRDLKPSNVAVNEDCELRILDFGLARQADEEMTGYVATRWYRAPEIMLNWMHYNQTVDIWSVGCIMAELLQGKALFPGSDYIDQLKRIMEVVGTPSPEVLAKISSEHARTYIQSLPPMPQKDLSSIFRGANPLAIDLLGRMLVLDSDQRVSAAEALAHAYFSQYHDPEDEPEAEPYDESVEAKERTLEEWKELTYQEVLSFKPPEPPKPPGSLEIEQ
Method: as §1, §2

IGF1R = target: T4, IGF1R (Homo sapiens, UniProt P08069)
T4 construct: purchased Eurofins DiscoverX, LLC; host or cells: E. coli (T7 phage) or HEK-293
Method: as §1, §2

PDPK1 = target: T5, PDPK1 (Homo sapiens, UniProt O15530)
T5 construct: purchased Eurofins DiscoverX, LLC; host or cells: E. coli BL21-derived host (T7 phage) or HEK-293
T5 sequence (O15530 1-556): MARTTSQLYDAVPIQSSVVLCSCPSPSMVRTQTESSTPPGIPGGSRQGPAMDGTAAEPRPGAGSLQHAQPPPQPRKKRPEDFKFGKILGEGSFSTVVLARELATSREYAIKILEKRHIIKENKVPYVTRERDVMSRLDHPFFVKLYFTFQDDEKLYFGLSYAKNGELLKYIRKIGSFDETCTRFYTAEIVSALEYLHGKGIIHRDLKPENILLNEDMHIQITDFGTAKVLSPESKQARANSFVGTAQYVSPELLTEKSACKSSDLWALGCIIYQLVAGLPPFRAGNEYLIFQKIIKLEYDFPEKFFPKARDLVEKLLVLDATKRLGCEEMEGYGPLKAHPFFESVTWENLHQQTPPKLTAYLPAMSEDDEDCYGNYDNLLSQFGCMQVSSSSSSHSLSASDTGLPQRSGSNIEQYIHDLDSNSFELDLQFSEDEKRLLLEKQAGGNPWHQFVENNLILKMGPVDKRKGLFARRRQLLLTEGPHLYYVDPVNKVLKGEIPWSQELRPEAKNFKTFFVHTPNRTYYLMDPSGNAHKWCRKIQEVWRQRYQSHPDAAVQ
Method: as §1, §2

[1] = target: T6, TYK2(JH1domain-catalytic) (Homo sapiens, UniProt P29597)
T6 construct: TYK2(JH1domain-; purchased Eurofins DiscoverX, LLC; host or cells: E. coli BL21-derived host (T7 phage) or HEK-293
T6 sequence (P29597 897-1176 limits assumed): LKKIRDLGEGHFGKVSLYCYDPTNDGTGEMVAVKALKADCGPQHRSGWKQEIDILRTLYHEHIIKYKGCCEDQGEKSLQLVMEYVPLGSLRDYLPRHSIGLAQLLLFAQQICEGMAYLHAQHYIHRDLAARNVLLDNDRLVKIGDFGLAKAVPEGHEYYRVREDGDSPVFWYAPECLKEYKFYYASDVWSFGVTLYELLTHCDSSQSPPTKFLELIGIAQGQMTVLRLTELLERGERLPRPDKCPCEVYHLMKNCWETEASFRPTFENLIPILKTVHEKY
Method: as §1, §2

ALK = target: T7, ALK (Homo sapiens, UniProt Q9UM73)
T7 construct: purchased Eurofins DiscoverX, LLC; host or cells: E. coli BL21-derived (T7 phage) or HEK-293
T7 sequence (Q9UM73 19-1620): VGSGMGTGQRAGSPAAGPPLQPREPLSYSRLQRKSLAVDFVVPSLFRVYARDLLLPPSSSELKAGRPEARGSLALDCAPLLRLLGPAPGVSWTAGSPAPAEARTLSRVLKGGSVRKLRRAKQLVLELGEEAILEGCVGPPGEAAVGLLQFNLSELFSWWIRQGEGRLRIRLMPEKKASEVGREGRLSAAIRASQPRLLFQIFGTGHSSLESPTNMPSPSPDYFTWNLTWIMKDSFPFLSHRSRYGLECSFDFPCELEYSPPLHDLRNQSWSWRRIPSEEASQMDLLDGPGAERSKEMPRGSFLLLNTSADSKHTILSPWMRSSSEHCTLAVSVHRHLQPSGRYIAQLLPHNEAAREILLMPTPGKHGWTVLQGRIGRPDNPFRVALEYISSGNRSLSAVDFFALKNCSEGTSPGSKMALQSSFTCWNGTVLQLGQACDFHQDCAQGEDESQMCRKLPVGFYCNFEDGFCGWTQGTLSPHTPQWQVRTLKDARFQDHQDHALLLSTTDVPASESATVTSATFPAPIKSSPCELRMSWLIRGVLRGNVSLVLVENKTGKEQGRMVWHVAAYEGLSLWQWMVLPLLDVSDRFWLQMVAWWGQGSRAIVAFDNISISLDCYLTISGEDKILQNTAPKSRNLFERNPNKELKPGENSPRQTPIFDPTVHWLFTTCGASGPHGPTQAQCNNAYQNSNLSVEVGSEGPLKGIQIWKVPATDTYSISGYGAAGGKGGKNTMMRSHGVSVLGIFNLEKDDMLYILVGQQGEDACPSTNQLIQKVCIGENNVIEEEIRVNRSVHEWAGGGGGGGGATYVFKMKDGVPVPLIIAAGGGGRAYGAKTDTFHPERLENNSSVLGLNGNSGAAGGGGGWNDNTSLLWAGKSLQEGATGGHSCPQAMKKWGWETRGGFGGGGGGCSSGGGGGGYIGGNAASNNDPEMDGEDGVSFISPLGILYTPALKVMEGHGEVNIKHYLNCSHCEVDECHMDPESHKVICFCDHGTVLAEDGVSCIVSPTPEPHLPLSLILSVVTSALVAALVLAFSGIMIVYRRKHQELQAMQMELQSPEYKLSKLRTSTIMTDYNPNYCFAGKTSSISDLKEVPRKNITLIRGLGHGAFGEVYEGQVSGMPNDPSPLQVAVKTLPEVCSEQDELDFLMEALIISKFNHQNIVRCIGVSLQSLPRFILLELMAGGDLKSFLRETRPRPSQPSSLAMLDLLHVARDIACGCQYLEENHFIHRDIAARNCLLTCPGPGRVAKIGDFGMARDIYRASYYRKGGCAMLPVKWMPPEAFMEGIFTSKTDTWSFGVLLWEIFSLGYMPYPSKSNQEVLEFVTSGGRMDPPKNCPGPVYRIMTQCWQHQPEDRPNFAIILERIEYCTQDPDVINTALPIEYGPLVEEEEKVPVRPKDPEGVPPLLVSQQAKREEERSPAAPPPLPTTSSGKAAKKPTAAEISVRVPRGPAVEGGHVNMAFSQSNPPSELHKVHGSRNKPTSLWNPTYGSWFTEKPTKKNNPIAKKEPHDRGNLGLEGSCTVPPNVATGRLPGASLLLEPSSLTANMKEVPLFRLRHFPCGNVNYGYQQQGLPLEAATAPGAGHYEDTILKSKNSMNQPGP
Method: as §1, §2

PRKCE = target: T8, PRKCE (Homo sapiens, UniProt Q02156)
T8 construct: purchased Eurofins DiscoverX, LLC; host or cells: E. coli BL21-derived host (T7 phage) or HEK-293
T8 sequence (Q02156 1-737): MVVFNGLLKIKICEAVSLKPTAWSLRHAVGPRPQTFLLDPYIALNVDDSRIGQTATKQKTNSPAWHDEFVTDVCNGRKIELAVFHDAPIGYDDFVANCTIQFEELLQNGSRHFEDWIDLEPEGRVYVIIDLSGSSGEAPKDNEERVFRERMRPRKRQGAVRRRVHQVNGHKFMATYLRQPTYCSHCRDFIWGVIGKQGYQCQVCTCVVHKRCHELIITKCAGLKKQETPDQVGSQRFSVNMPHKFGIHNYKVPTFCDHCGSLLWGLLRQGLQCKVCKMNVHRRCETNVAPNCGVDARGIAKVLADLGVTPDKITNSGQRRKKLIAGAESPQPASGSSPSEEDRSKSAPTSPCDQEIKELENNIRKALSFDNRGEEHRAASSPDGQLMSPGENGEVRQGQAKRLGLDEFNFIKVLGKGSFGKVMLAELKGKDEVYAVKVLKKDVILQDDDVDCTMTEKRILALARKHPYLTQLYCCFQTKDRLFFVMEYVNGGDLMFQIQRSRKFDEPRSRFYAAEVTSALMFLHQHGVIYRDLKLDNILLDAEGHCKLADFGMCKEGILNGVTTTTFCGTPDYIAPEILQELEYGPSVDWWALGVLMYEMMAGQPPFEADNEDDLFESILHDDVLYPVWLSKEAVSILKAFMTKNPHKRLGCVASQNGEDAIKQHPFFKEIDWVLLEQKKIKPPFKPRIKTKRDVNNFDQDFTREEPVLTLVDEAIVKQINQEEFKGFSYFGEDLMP
Method: as §1, §2

ERK1 = target: T9, ERK1 (Homo sapiens, UniProt P27361)
T9 construct: purchased Eurofins DiscoverX, LLC; host or cells: E. coli (T7 phage) or HEK-293
T9 sequence (P27361 whole entry): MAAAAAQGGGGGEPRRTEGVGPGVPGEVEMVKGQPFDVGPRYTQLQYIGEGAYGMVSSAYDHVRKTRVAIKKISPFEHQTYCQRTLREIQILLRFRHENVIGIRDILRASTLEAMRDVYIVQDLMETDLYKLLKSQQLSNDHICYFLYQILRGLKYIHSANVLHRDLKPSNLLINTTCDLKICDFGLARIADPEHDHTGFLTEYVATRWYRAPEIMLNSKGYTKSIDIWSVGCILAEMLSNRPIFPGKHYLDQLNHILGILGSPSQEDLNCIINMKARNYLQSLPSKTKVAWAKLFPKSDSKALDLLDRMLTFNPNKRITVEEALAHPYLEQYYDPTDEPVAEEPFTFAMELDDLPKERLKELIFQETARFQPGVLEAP
Method: as §1, §2

FAK = target: T10, FAK (Homo sapiens, UniProt Q05397)
T10 construct: purchased Eurofins DiscoverX, LLC; host or cells: E. coli (T7 phage) or HEK-293
T10 sequence (Q05397 whole entry): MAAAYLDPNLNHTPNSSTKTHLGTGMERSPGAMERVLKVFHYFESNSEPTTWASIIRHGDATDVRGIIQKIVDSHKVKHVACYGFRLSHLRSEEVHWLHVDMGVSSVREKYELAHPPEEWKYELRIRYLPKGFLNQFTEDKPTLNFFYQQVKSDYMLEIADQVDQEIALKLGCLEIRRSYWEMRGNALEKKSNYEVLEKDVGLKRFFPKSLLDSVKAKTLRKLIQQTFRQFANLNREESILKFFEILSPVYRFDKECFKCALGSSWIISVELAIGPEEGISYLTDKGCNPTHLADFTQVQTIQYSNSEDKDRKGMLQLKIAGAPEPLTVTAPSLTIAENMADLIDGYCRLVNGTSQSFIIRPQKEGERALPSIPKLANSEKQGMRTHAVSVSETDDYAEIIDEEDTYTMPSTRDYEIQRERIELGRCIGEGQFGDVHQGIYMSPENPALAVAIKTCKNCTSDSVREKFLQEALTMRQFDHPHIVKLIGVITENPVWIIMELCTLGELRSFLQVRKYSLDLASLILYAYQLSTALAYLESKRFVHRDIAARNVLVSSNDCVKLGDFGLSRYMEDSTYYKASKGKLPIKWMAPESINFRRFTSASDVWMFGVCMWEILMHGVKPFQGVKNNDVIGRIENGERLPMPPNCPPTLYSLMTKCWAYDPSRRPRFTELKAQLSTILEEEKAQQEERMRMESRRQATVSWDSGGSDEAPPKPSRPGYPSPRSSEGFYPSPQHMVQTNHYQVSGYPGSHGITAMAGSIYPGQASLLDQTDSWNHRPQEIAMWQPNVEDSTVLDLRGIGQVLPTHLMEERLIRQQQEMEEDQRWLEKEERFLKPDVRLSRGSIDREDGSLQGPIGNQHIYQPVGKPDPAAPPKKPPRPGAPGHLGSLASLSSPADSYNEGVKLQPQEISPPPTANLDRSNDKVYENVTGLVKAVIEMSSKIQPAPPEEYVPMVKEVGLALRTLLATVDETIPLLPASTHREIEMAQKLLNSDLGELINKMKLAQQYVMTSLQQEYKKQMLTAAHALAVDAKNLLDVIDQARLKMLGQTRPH
Method: as §1, §2

T1 sequence (P80192 whole entry): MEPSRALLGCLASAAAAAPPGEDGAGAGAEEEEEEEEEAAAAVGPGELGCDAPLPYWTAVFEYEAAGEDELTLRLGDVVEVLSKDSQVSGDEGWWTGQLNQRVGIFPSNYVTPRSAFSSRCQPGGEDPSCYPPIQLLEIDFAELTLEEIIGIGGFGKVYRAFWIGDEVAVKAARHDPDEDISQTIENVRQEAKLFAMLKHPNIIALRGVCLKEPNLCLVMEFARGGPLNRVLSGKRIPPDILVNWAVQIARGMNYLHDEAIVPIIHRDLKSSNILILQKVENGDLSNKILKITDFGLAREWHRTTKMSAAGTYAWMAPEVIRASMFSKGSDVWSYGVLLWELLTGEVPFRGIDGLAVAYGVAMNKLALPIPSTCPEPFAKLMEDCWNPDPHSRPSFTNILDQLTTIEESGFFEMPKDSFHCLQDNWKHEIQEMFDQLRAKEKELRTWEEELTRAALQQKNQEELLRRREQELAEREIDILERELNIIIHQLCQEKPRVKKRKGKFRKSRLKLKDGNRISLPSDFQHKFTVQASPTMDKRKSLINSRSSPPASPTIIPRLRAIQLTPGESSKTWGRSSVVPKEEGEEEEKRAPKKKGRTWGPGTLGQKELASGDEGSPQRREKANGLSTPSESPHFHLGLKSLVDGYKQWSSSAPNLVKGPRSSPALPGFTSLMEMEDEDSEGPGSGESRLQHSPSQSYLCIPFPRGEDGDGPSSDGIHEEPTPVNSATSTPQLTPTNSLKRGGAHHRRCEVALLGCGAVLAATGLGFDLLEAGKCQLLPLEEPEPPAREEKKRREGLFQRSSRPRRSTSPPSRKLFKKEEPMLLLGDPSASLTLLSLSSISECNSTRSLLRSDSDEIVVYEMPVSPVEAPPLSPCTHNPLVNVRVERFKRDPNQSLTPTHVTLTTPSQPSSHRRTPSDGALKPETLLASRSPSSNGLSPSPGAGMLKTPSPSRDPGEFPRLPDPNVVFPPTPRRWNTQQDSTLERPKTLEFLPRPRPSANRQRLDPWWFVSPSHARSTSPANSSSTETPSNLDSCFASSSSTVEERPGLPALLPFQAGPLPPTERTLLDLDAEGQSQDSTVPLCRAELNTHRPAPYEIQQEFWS

Row | SMILES | RA @ 1000nM (MLK1) [%] | RA @ 10000nM (MLK1) [%] | RA @ 1000nM (PIK3C2B) [%] | RA @ 10000nM (PIK3C2B) [%] | RA @ 1000nM (p38β) [%] | RA @ 10000nM (p38β) [%] | RA @ 1000nM (IGF1R) [%] | RA @ 10000nM (IGF1R) [%] | RA @ 1000nM (PDPK1) [%] | RA @ 10000nM (PDPK1) [%] | RA @ 1000nM [1] [%] | RA @ 10000nM [1] [%] | RA @ 1000nM (ALK) [%] | RA @ 10000nM (ALK) [%] | RA @ 1000nM (PRKCE) [%] | RA @ 10000nM (PRKCE) [%] | RA @ 1000nM (ERK1) [%] | RA @ 10000nM (ERK1) [%] | RA @ 1000nM (FAK) [%] | RA @ 10000nM (FAK) [%]
1 | CC(C)Cn1ncc2cc(Cc3ccc(F)cc3F)c(C(=O)NCCN(C)C)cc21 [Compound 94, 5-(2,4-Difluorobenzyl)-N-(2-(dimethylamino)ethyl)-1-isobutyl-1H-indazole-6-carboxamide] | 100 | 100 | 90 | 82 | 72 | 15 | 94 | 84 | 88 | 74 | 78 | 79 | 93 | 83 | 80 | 80 | 87 | 87 | 96 | 89
2 | CN(C)CCNC(=O)c1cc2c(cnn2CC2CCCCC2)cc1Cc1ccc(F)cc1F [Compound 95, 1-(Cyclohexylmethyl)-5-(2,4-difluorobenzyl)-N-(2-(dimethylamino)ethyl)-1H-indazole-6-carboxamide] | 100 | 90 | 91 | 91 | 84 | 18 | 100 | 93 | 100 | 87 | 89 | 75 | 62 | 92 | 79 | 76 | 96 | 90 | 92 | 94
